{"source": "ChEMBL document CHEMBL1148897", "about": "“New natural products from the sponge-derived fungus Aspergillus niger” (J Nat Prod, 2004)", "key": {"Artemia salina [1]": {"tested_on": "Artemia salina", "assay": "Toxicity in Artemia salina at 100 ppm", "type": "organism-based", "conditions": "in vivo"}, "Staphylococcus aureus [2]": {"tested_on": "Staphylococcus aureus", "assay": "Antimicrobial activity against Staphylococcus aureus at 50 ug/disk after 24 hrs by agar plate diffusion assay", "type": "functional, organism-based"}, "Escherichia coli [3]": {"tested_on": "Escherichia coli", "assay": "Antimicrobial activity against Escherichia coli at 100 ug/disk after 24 hrs by agar plate diffusion assay", "type": "functional, organism-based"}, "Artemia salina [4]": {"tested_on": "Artemia salina", "assay": "Toxicity in Artemia salina at 10 ppm", "type": "organism-based", "conditions": "in vivo"}, "Escherichia coli [5]": {"tested_on": "Escherichia coli", "assay": "Antimicrobial activity against Escherichia coli at 50 ug/disk after 24 hrs by agar plate diffusion assay", "type": "functional, organism-based"}, "Bacillus subtilis [6]": {"tested_on": "Bacillus subtilis", "assay": "Antimicrobial activity against Bacillus subtilis at 50 ug/disk after 24 hrs by agar plate diffusion assay", "type": "functional, organism-based"}, "Staphylococcus aureus [7]": {"tested_on": "Staphylococcus aureus", "assay": "Antimicrobial activity against Staphylococcus aureus at 100 ug/disk after 24 hrs by agar plate diffusion assay", "type": "functional, organism-based"}, "Bacillus subtilis [8]": {"tested_on": "Bacillus subtilis", "assay": "Antimicrobial activity against Bacillus subtilis at 1000 ug/disk after 24 hrs by agar plate diffusion assay", "type": "functional, organism-based"}, "Candida albicans [9]": {"tested_on": "Candida albicans", "assay": "Antimicrobial activity against Candida albicans at 50 ug/disk after 24 hrs by agar plate diffusion assay", "type": "functional, organism-based"}, "Candida albicans [10]": {"tested_on": "Candida albicans", "assay": "Antimicrobial activity against Candida albicans at 100 ug/disk after 24 hrs by agar plate diffusion assay", "type": "functional, organism-based"}, "Cortical neurone [11]": {"tested_on": "Cortical neurone", "assay": "Neuroprotective activity in Wistar rat cortical neuron assessed as reduction of L-glutamic acid-induced intracellular calcium level at 1 ug/mL relative to control", "type": "functional", "set-up": "scale not given: the % may be the effect or the level left"}, "Cortical neurone [12]": {"tested_on": "Cortical neurone", "assay": "Neuroprotective activity in Wistar rat cortical neuron assessed as reduction of quisqualic acid-induced intracellular calcium level at 1 ug/mL relative to control", "type": "functional", "set-up": "scale not given: the % may be the effect or the level left"}, "Cortical neurone [13]": {"tested_on": "Cortical neurone", "assay": "Neuroprotective activity in Wistar rat cortical neuron assessed as reduction of L-glutamic acid-induced intracellular calcium level at 5 ug/mL relative to control", "type": "functional", "set-up": "scale not given: the % may be the effect or the level left"}, "Cortical neurone [14]": {"tested_on": "Cortical neurone", "assay": "Neuroprotective activity in Wistar rat cortical neuron assessed as reduction of quisqualic acid-induced intracellular calcium level at 5 ug/mL relative to control", "type": "functional", "set-up": "scale not given: the % may be the effect or the level left"}, "Spodoptera littoralis [15]": {"tested_on": "Spodoptera littoralis", "assay": "Insecticidal activity against Spodoptera littoralis larvae assessed as reduction of weight at 100 ppm in artificial diet after 7 days relative to control", "type": "functional", "set-up": "scale not given: the % may be the effect or the level left"}, "Spodoptera littoralis [16]": {"tested_on": "Spodoptera littoralis", "assay": "Insecticidal activity against Spodoptera littoralis larvae assessed as survival rate at 100 ppm in artificial diet after 7 days relative to control", "type": "functional"}}, "note": "Activity calls are given as the source filed them. The rule behind the calls is not given here.", "data": [{"smiles": "COc1cc(C)c2c(OC)c(-c3c(O)c4c(C)cc(O)cc4oc3=O)c(=O)oc2c1", "values": [{"measurement": "Activity", "setting": "Artemia salina [1]", "value": "Non-toxic"}, {"measurement": "Activity", "setting": "Staphylococcus aureus [2]", "value": "inactive"}, {"measurement": "Activity", "setting": "Escherichia coli [3]", "value": "inactive"}, {"measurement": "Activity", "setting": "Artemia salina [4]", "value": "Non-toxic"}, {"measurement": "Activity", "setting": "Escherichia coli [5]", "value": "inactive"}, {"measurement": "Activity", "setting": "Bacillus subtilis [6]", "value": "inactive"}, {"measurement": "Activity", "setting": "Staphylococcus aureus [7]", "value": "inactive"}, {"measurement": "Activity", "setting": "Bacillus subtilis [8]", "value": "inactive"}, {"measurement": "Activity", "setting": "Candida albicans [9]", "value": "inactive"}, {"measurement": "Activity", "setting": "Candida albicans [10]", "value": "inactive"}]}, {"smiles": "NC(=O)c1c[nH]c(=O)cc1Cc1ccccc1", "note": "[ASPERNIGRIN A]", "values": [{"measurement": "Activity", "setting": "Artemia salina [1]", "value": "Non-toxic"}, {"measurement": "Activity", "setting": "Staphylococcus aureus [2]", "value": "inactive"}, {"measurement": "Activity", "setting": "Escherichia coli [3]", "value": "inactive"}, {"measurement": "Activity", "setting": "Artemia salina [4]", "value": "Non-toxic"}, {"measurement": "Activity", "setting": "Escherichia coli [5]", "value": "inactive"}, {"measurement": "Activity", "setting": "Bacillus subtilis [6]", "value": "inactive"}, {"measurement": "Activity", "setting": "Staphylococcus aureus [7]", "value": "inactive"}, {"measurement": "Activity", "setting": "Bacillus subtilis [8]", "value": "inactive"}, {"measurement": "Activity", "setting": "Candida albicans [9]", "value": "inactive"}, {"measurement": "Activity", "setting": "Candida albicans [10]", "value": "inactive"}]}, {"smiles": "COc1cc([C@H](Cc2ccccc2)n2cc(C(N)=O)c(Cc3ccccc3)cc2=O)oc(=O)c1", "note": "[ASPERNIGRIN B]", "values": [{"measurement": "Activity", "setting": "Artemia salina [1]", "value": "Non-toxic"}, {"measurement": "Activity", "setting": "Cortical neurone [11]", "value": 25.5, "unit": "%"}, {"measurement": "Activity", "setting": "Cortical neurone [12]", "value": 33.6, "unit": "%"}, {"measurement": "Activity", "setting": "Staphylococcus aureus [2]", "value": "inactive"}, {"measurement": "Activity", "setting": "Escherichia coli [3]", "value": "inactive"}, {"measurement": "Activity", "setting": "Artemia salina [4]", "value": "Non-toxic"}, {"measurement": "Activity", "setting": "Escherichia coli [5]", "value": "inactive"}, {"measurement": "Activity", "setting": "Bacillus subtilis [6]", "value": "inactive"}, {"measurement": "Activity", "setting": "Cortical neurone [13]", "value": 55, "unit": "%"}, {"measurement": "Activity", "setting": "Cortical neurone [14]", "value": 23.5, "unit": "%"}, {"measurement": "Activity", "setting": "Staphylococcus aureus [7]", "value": "inactive"}, {"measurement": "Activity", "setting": "Bacillus subtilis [8]", "value": "inactive"}, {"measurement": "Activity", "setting": "Candida albicans [9]", "value": "inactive"}, {"measurement": "Activity", "setting": "Candida albicans [10]", "value": "inactive"}]}, {"smiles": "C/C=C/c1oc2c(c(=O)c1O)N[C@H](O)C2=O", "note": "[PYRANONIGRIN A]", "values": [{"measurement": "Activity", "setting": "Artemia salina [1]", "value": "Non-toxic"}, {"measurement": "Activity", "setting": "Spodoptera littoralis [15]", "value": 29, "unit": "%"}, {"measurement": "Activity", "setting": "Spodoptera littoralis [16]", "value": 85, "unit": "%"}, {"measurement": "Activity", "setting": "Staphylococcus aureus [2]", "value": "inactive"}, {"measurement": "Activity", "setting": "Escherichia coli [3]", "value": "inactive"}, {"measurement": "Activity", "setting": "Artemia salina [4]", "value": "Non-toxic"}, {"measurement": "Activity", "setting": "Escherichia coli [5]", "value": "inactive"}, {"measurement": "Activity", "setting": "Bacillus subtilis [6]", "value": "inactive"}, {"measurement": "Activity", "setting": "Staphylococcus aureus [7]", "value": "inactive"}, {"measurement": "Activity", "setting": "Bacillus subtilis [8]", "value": "inactive"}, {"measurement": "Activity", "setting": "Candida albicans [9]", "value": "inactive"}, {"measurement": "Activity", "setting": "Candida albicans [10]", "value": "inactive"}]}, {"smiles": "C/C=C/c1oc2c(OC)c(O)n(O)c2c(=O)c1O", "note": "[PYRANONIGRIN B]", "values": [{"measurement": "Activity", "setting": "Artemia salina [1]", "value": "Non-toxic"}, {"measurement": "Activity", "setting": "Staphylococcus aureus [2]", "value": "inactive"}, {"measurement": "Activity", "setting": "Escherichia coli [3]", "value": "inactive"}, {"measurement": "Activity", "setting": "Artemia salina [4]", "value": "Non-toxic"}, {"measurement": "Activity", "setting": "Escherichia coli [5]", "value": "inactive"}, {"measurement": "Activity", "setting": "Bacillus subtilis [6]", "value": "inactive"}, {"measurement": "Activity", "setting": "Staphylococcus aureus [7]", "value": "inactive"}, {"measurement": "Activity", "setting": "Bacillus subtilis [8]", "value": "inactive"}, {"measurement": "Activity", "setting": "Candida albicans [9]", "value": "inactive"}, {"measurement": "Activity", "setting": "Candida albicans [10]", "value": "inactive"}]}, {"smiles": "C/C=C/c1oc2c(O)c(OC)n(O)c2c(=O)c1O", "note": "[PYRANONIGRIN C]", "values": [{"measurement": "Activity", "setting": "Artemia salina [1]", "value": "Non-toxic"}, {"measurement": "Activity", "setting": "Staphylococcus aureus [2]", "value": "inactive"}, {"measurement": "Activity", "setting": "Escherichia coli [3]", "value": "inactive"}, {"measurement": "Activity", "setting": "Artemia salina [4]", "value": "Non-toxic"}, {"measurement": "Activity", "setting": "Escherichia coli [5]", "value": "inactive"}, {"measurement": "Activity", "setting": "Bacillus subtilis [6]", "value": "inactive"}, {"measurement": "Activity", "setting": "Staphylococcus aureus [7]", "value": "inactive"}, {"measurement": "Activity", "setting": "Bacillus subtilis [8]", "value": "inactive"}, {"measurement": "Activity", "setting": "Candida albicans [9]", "value": "inactive"}, {"measurement": "Activity", "setting": "Candida albicans [10]", "value": "inactive"}]}]}
